Experimental data reported in patent US10174015B2, “Substituted heterocyclic derivative, preparation method and use thereof” (Xiamen University, priority 2014, dated 2019).
Like-named read-outs stand apart in the source and are kept apart here. Marks after values point to notes of the source that are not given here.

Legend:
zebrafish embryos = assay type: in vivo; details: for Death number (72 h): n = 30; for Body length (72 h) / Hatching number (72 h) / Heartbeat (72 h) / Unhatching number (72 h) / hatching rate: zebrafish, in vivo, 72 h
Experimental: Fertilized eggs (donated by Zebrafish Research Group, School of Life Sciences, Xiamen University) were incubated in freshly prepared zebrafish embryo culture medium, which was replaced by fresh culture medium every day, and cultured in 28.5° C. incubator. Pure water was placed in the incubator to ensure a certain humidity in the culture environment. The formulation for zebrafish embryo culture medium was following: 5 mM NaCl, 0.17 mM KCl, 0.33 mM CaCl2, 0.33 mM MgSO4, 10-5% methylene blue. The culture medium was prepared with pure water. For example, NaCl: 292.2 mg, KCl: 12.68 mg, CaCl2: 36.63 mg, MgSO4: 39.72 mg, and methylene blue: 0.1 μL were needed for the preparation of 1 L culture medium.
7 Groups were set for each test compound, including 5 experimental groups relating to the test compound at different concentrations (solutions containing the test compound at different concentrations were prepared by using zebrafish embryo culture medium, wherein the concentrations were 10 mg/L, 3 mg/L, 1 mg/L, 0.3 mg/L, 0.1 mg/L), 1 solvent control group (DMSO) and 1 blank control group. The positive control drug was OTC analgesic ibuprofen at concentrations as described above. A 96-well cell culture plate was used to perform the experiment, three wells in parallel were used for each experimental group, and 10 fish eggs were contained in each well.
Culture medium containing a test compound was prepared, and the culture medium was added to a 96-well plate in advance, and each fertilized egg (by reference to the experimental method in OECD No. 212 document, fertilized eggs, which developed normally within 2 h after fertilization, were selected and subjected to exposure. Transparent fish eggs visible to naked eye were normally fertilized, while white fish eggs were dead and discarded. After the selection, the normally fertilized eggs had begun to divide as observed under microscope) was then independently placed in a different well, and cultured in the culture medium containing a test compound at a different concentration. Embryo development status at different stages was observed and photographed with invert microscope, including: […]
II. Hatching number and death number were counted at 72 h after fertilization, and hatching rate and mortality were calculated; […]
V. Heartbeat of young fishes (times/min) was recorded at 72 h and 96 h after fertilization (Recording method: heartbeat of young fishes could be clearly observed under microscope, and the number of heartbeats was recorded for 30 s).

[1] = system: adjuvant-induced arthritis rat models; assay: Adjuvant-induced osteoarthritis pain, foot swelling degree; assay type: in vivo, rats; details: 10 mg/Kg; for Foot swelling degree after inflammation: X ± S, n = 10; for effect of inhibiting osteoarthritis pain: rats, indometacin 10 mg/Kg
Experimental: Typical model for studying inflammatory pain medically was used to evaluate the therapeutic effects of compounds on inflammatory pain. 0.1 mL Freund's complete adjuvant was intradermally injected to toe of the left hind foot of the rats in each group to obtain adjuvant-induced arthritis rat models. Foot volume method was used to measure primary and secondary foot swelling degree (swelling degree=volume after inflammation−volume before inflammation), and polyarticular arthritis were scored (5 scoring grades: 0 represents no red swelling; 4 represents red swelling at all the paws including anklebone. The scores are accumulated according to the lesion degree of the rest three limbs not injected with adjuvant, and the highest score is 12). Before inflammation and at 6 h, 12 h, 18 h and 24 h after inflammation, Paw Volume Meter was used to measure the foot volume at the inflammatory side, and the swelling degree was calculated. The model can represent inflammatory pain including, but not only limited to: osteoarthritis pain and fibromyalgia syndrome, inflammatory pain of rheumatic and rheumatoid arthritis, inflammatory pain of endometriosis, inflammatory toothache, ankylosing spondylitis pain, and gouty arthritis pain.

[2] = system: inflammatory abdominal pain caused by acetic acid; assay: Abdominal inflammatory pain caused by acetic acid; assay type: in vivo, Kunming mice; details: mice, 10 mg/kg i.p. 1 h before acetic acid; indometacin 20 mg/kg (FIG. 4)
Experimental: In the Experimental example, compounds to be evaluated or compounds to be tested or test compounds used are the Compounds 1-46 prepared in the Examples according to the invention. In the Experimental example, all the agents for injection, including compounds to be evaluated or compounds to be tested or test compounds, and positive control drug, were dissolved in a mixed solvent of PEG400:Tween 80:normal saline (at a volume ratio of 5:5:90), at a concentration of 5 mg/mL.
Typical model for studying inflammation-induced visceral pain medically was used to evaluate the therapeutic effects of compounds on inflammatory visceral pain. The model can represent general visceral pain including, but not only limited to appendicitis, gastritis, pancreatitis, prostatitis, myocarditis, interstitial cystitis, pain caused by hepatic, gall or kidney stone, irritable bowel syndrome, and chronic pelvic pain syndrome.
Experimental Kunming mice (purchased by Xiamen University Laboratory Animal Center from Shanghai SLAC Laboratory Animal Co., Ltd) were in an experimental environment with free access to food and water for 1 week. The mice were fasted for 24 h before administration. The compound to be evaluated (10 mg/kg) was administered to the mice by intraperitoneal injection at 1 h before administration of acetic acid, wherein the positive control drug indometacin was administered at a dose of 20 mg/kg, and the blank control was normal saline. Acetic acid (50 μL, acetic acid dissolved in normal saline, at a concentration of 5%) was administered to the mice by intraperitoneal injection, and the mice were then placed in the observation cage. A video camera was used to record the behavior of the mice in the following 20 min. Pain-related behavior was analyzed statistically based on torsion times of the mice in said period.

| SMILES | Death number (72 h) (zebrafish embryos; 0.1 mg/L) | Death number (72 h) (zebrafish embryos; 0.3 mg/L) | Death number (72 h) (zebrafish embryos; 1 mg/L) | Death number (72 h) (zebrafish embryos; 3 mg/L) | Death number (72 h) (zebrafish embryos; 10 mg/L) | Body length (72 h) (zebrafish embryos; 0.1 mg/L) [mm] | Hatching number (72 h) (zebrafish embryos; 0.1 mg/L) | Heartbeat (72 h) (zebrafish embryos; 0.1 mg/L) [per min] | Unhatching number (72 h) (zebrafish embryos; 0.1 mg/L) | Body length (72 h) (zebrafish embryos; 0.3 mg/L) [mm] | Hatching number (72 h) (zebrafish embryos; 0.3 mg/L) | Heartbeat (72 h) (zebrafish embryos; 0.3 mg/L) [per min] | Unhatching number (72 h) (zebrafish embryos; 0.3 mg/L) | Body length (72 h) (zebrafish embryos; 1 mg/L) [mm] | Hatching number (72 h) (zebrafish embryos; 1 mg/L) | Heartbeat (72 h) (zebrafish embryos; 1 mg/L) [per min] | Unhatching number (72 h) (zebrafish embryos; 1 mg/L) | hatching rate (zebrafish embryos; 1 mg/L) [%] | Hatching number (72 h) (zebrafish embryos; 3 mg/L) | Unhatching number (72 h) (zebrafish embryos; 3 mg/L) | other results |
| --- | --- | --- | --- | --- | --- | --- | --- | --- | --- | --- | --- | --- | --- | --- | --- | --- | --- | --- | --- | --- | --- |
| O=C(CCCCCc1cccc(Cl)c1)N1CCOC1=O [Compound 9, 3-Chlorophenylhexanoyl Oxazolidinone] | 2 | 2 | 3 | 30 | 30 | 3.90 ± 0.05 | 28 | 129 ± 2.73 | 0 | 3.86 ± 0.03 | 28 | 130 ± 3.22 | 0 | 3.88 ± 0.04 | 27 | 130 ± 2.76 | 0 | 90 | 0 | 0 | Hatching number (72 h) (zebrafish embryos; 10 mg/L): 0; Unhatching number (72 h) (zebrafish embryos; 10 mg/L): 0; Foot swelling degree after inflammation ([1]; 6 h): 0.44 ± 0.09^c mL; Foot swelling degree after inflammation ([1]; 12 h): 0.75 ± 0.24^c mL; Foot swelling degree after inflammation ([1]; 18 h): 1.24 ± 0.24^b mL; Foot swelling degree after inflammation ([1]; 24 h): 1.06 ± 0.18^c mL; effect of inhibiting osteoarthritis pain [1]: significant effects of inhibiting osteoarthritis pain; effect of inhibiting abdominal inflammatory pain [2]: significant effects of inhibiting abdominal inflammatory pain |
| O=C(CCCCCc1ccccc1)N1CCOC1=O [Compound 2, Phenylhexanoyl Oxazolidinone] | 3 | 2 | 1 | 30 | 30 | 3.86 ± 0.05 | 27 | 130 ± 3.00 | 0 | 3.87 ± 0.05 | 28 | 130 ± 3.58 | 0 | 3.85 ± 0.06 | 29 | 128 ± 3.29 | 0 | 96.67 | 0 | 0 | Hatching number (72 h) (zebrafish embryos; 10 mg/L): 0; Unhatching number (72 h) (zebrafish embryos; 10 mg/L): 0; Foot swelling degree after inflammation ([1]; 6 h): 0.35 ± 0.07^c mL; Foot swelling degree after inflammation ([1]; 12 h): 0.65 ± 0.13^c mL; Foot swelling degree after inflammation ([1]; 18 h): 1.06 ± 0.14^c mL; Foot swelling degree after inflammation ([1]; 24 h): 0.89 ± 0.21^c mL; effect of inhibiting osteoarthritis pain [1]: significant effects of inhibiting osteoarthritis pain; effect of inhibiting abdominal inflammatory pain [2]: significant effects of inhibiting abdominal inflammatory pain |
